Source: ChEMBL document CHEMBL4118090, “Dihydrothieno-pyridin-one and Tetrahydrothieno-azepinone Inhibitors of Enhancer of Zeste Homologue 2” (ACS Med Chem Lett, 2017)

Biological target: Histone-lysine N-methyltransferase EZH2 (Homo sapiens, UniProt Q15910)
Assay: Inhibition of methyltransferase activity of flag-tagged EZH2 in human PRC2 complex expressed in Sf9 insect cells using biotinylated histone H3K27 peptide as substrate after 60 mins in presence of 3H-SAM by scintillation proximity assay

Sequence of Histone-lysine N-methyltransferase EZH2 (Q15910 whole entry): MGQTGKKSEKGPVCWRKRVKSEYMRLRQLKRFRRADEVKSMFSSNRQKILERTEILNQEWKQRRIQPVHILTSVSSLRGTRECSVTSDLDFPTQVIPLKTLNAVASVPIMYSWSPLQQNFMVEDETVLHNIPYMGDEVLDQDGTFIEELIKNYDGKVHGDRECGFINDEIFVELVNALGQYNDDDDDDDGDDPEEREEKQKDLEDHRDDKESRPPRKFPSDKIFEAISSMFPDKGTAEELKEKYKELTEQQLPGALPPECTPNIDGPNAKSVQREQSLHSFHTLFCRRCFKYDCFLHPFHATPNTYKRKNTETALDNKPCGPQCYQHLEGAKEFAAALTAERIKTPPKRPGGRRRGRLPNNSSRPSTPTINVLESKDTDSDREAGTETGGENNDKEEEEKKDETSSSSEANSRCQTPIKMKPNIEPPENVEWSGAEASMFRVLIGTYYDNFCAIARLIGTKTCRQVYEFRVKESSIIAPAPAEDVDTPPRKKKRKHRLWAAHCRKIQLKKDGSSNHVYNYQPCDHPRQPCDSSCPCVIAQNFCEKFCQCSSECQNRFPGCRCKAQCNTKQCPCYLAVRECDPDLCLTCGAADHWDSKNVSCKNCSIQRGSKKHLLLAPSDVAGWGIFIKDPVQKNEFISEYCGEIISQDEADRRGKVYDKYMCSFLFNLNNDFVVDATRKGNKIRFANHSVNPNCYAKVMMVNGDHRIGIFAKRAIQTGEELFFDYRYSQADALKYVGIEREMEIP

IC50, ≤ 10 nM:
CC[C@@H](c1sc2c(c1C)CN(Cc1c(C)cc(C)[nH]c1=O)CC2)C1CCN(Cc2ccnc(OC)c2)CC1, CC[C@@H](c1sc2c(c1C)CN(C(=O)c1c(C)cc(C)[nH]c1=O)CC2)C1CCN(Cc2ccccn2)CC1, CC[C@@H](c1sc2c(c1C)C(=O)N(Cc1c(C)cc(C)[nH]c1=O)CC2)C1CCN(Cc2ccccc2)CC1, Cc1cc(C)c(CN2CCCc3sc([C@H](C)C4CCN(Cc5ccccn5)CC4)c(C)c3C2)c(=O)[nH]1, CC[C@@H](c1scc(C(=O)NCc2c(C)cc(C)[nH]c2=O)c1C)C1CCN(Cc2ccc(Cl)cn2)CC1, Cc1cc(C)c(CN2CCCc3sc([C@H](C)C4CCN(CC5CCCCC5)CC4)c(C)c3C2)c(=O)[nH]1
